Data taken from patent publication US20230092389A1, “UNIT DOSES, AEROSOLS, KITS, AND METHODS FOR TREATING HEART CONDITIONS BY PULMONARY ADMINISTRATION” (InCarda Therapeutics, Inc., priority 2017, published 2023).
Like-named read-outs stand apart in the source and are kept apart here.

Legend:
[1] = system: dogs with induced supraventricular tachycardia; test: Induced supraventricular tachycardia (SVT) model, IT vs IV, anesthetized dogs (Example 2); assay type: in vivo, dog; settings: for cardiovascular effect when given by intratracheal instillation: summary of Example 2
Method: Supraventricular Tachycardia Model:
A venous catheter was placed in a peripheral vessel (i.e., cephalic) for administration of anesthetic(s). For anesthesia induction, all animals were given a combination of diazepam (˜0.5 mg/kg) and ketamine (˜10 mg/kg) intravenously through this venous catheter. Anesthesia was sustained until completion of the study with an intravenous infusion of pentobarbital (5-15 mg/kg/hr). Following induction, animals were endotracheally intubated and mechanically ventilated (˜12 breaths/min with a tidal volume of 200-300 mL).
Subsequently, a cut-down on a jugular vein permitted the introduction of a pacing lead into the right atrium. Similarly, for arterial pressure monitoring, a solid-state micromanometer catheter (Millar Instruments) was advanced into the aortic root via a cut-down over an artery (e.g., femoral, carotid). Transthoracic electrodes forming ECG lead II was placed. For vehicle/test article delivery, a 4F catheter was introduced through the trachea and wedged into a small airway, and a venous catheter was placed in a peripheral vessel (i.e., cephalic).
Following instrumentation/hemodynamic stabilization (for at least 15 minutes), right atrial pacing (5-10 V, 40 Hz, 2 ms pulses) was established in order to induce supraventricular tachycardia (SVT); pacing and SVT was sustained throughout the duration of the experiments. Approximately 5 minutes after onset of SVT and while monitoring ECG/arterial pressure continuously, the animals were administered three escalating doses (one at a time) of a test article; each dose was delivered as a bolus (˜3 mL) directly into a small airway through the intratracheal catheter (IT). Following dosing, the heart-rate (HR) and arterial pressure response were monitored for 15 minutes.
Subsequently (once the response to three IT doses had been recorded), hemodynamic recovery was allowed for approximately 30 minutes, and the electrocardiographic/hemodynamic response to the highest test-article dose was re-evaluated; however, for comparison purposes, this dose was delivered intravenously (IV).
Overall, two groups/test-articles were studied, and up to two animals were assigned to each group (n=2/group): one group received esmolol HCL (0.5-1.0 mg/kg, ESM), while the other received adenosine (0.25-1.0 mg/kg, ADN); only one test article was administered to per animal.

[2] = system: dogs with induced atrial fibrillation; assay type: in vivo, dog; settings: for conversion of induced atrial fibrillation to normal sinus rhythm: pulmonary dose 0.25 mg/kg body weight; for cardiovascular effect when given by intratracheal instillation: summary of Example 2
Method: Atrial Fibrillation Model: A venous catheter was placed in a peripheral vessel (i.e., cephalic) for administration of anesthetic. […] Following induction, animals were endotracheally intubated and mechanically ventilated (˜12 breaths/minute with a tidal volume of 200-300 mL). Subsequently, a cut-down on a jugular vein permitted introduction of a pacing lead into the right atrium. Transthoracic electrodes forming ECG lead II were placed. For test/vehicle article delivery, a 4F catheter was introduced through the trachea and wedged into a small airway, and a venous catheter was placed in a peripheral vessel (i.e., cephalic). […] Approximately 5 min after administration of this parasympathomimetic was started; the following experiments were performed: […] Observations were made for up to 10 minutes. […] Vehicle was only water.

physchem = settings: water

In the case of `Nc1ncnc2c1ncn2[C@@H]1O[C@H](CO)[C@@H](O)[C@H]1O` [adenosine], the “effect on the heart” value ([1]; administered via the lung) is reported as “did not have any effect on the heart” and the “cardiovascular effect when given by intratracheal instillation” value (“cardiovascular effect when given” for short) [1] is reported as “clear response was not observed”.
With `COc1ccc([C@@H]2Sc3ccccc3N(CCN(C)C)C(=O)[C@@H]2OC(C)=O)cc1` [diltiazem] the “mean arterial blood pressure (MAP)” value ([2]; dog, in vivo, 0.25 mg/kg) was “notable drop”, the PQ interval ([2]; pulmonary dose 0.25 mg/kg) was “prolonged the PQ interval” and the heart rate ([2]; pulmonary dose 0.25 mg/kg) was “slowed down but marginally”. The “conversion of induced atrial fibrillation to normal sinus rhythm” value ([2]; 0.25 mg/kg) was “converted the induced atrial fibrillation to normal sinus rhythm”, the “conversion of induced atrial fibrillation to normal sinus rhythm” value ([2]; listed as diltiazem HCl, 0.25 mg/kg) was “Afib converting after administration” and the “cardiovascular effect when given” value [2] was “clear cardiovascular effect”. The solubility (physchem) was over 90 mg/mL, the “pH of solution in water” value (3.5 mg/mL solution) was 6.7 and the appearance of solution (diltiazem hydrochloride 50 mg/ml, flecainide acetate 30 mg/ml in distilled water) was “clear with no visible particulate matter”. The “comparison of pulmonary and IV routes” value ([1]; 0.25 mg/kg (FIGS. 14, 15)) was “comparable in all aspects”, the PR interval ([1]; IV or pulmonary, 0.25 mg/kg) was “prolonged the PR interval” and the “timing of the electrophysiological change” value ([1]; IV vs pulmonary) was “comparable between IV and pulmonary”. The “Mean Arterial Pressure (MAP)” value ([1]; dog, in vivo, iv, 0.25 mg/kg) was “dropped significantly in both cases”.
With `CN(CCOc1ccc(NS(C)(=O)=O)cc1)CCc1ccc(NS(C)(=O)=O)cc1` [dofetilide] the heart rate ([2]; escalating pulmonary doses of 10-40 mcg/kg body weight) was “minor reduction in heart rate”, the “effect on induced atrial fibrillation” value ([2]; pulmonary (IT) administration) was “marginally slowed the ventricular rate” and the “cardiovascular effect when given” value [2] was “probable effect”.
In the case of `COC(=O)CCc1ccc(OCC(O)CNC(C)C)cc1` (stereo not shown) [esmolol], the AV block ([1]; 0.5 mg/kg via the lung (FIGS. 17, 18)) is reported as “period of AV block induced”, the AV block ([1]; 0.75 mg/kg via the lung (FIG. 20)) is reported as “period of AV block induced” and the “PR intervals in the ECG traces” value ([1]; elevating doses, IT) is reported as “prolonging the PR intervals”. The electrophysiological effects ([1]; higher dose 1.0 mg/kg) was “did not produce the same electrophysiological effects”, the AV block ([1]; lower doses, via the lung (IT)) was 2nd degree AV block and the “cardiovascular effect when given” value [1] was “probable effect”. For the same compound, the “drop in MAP” value ([1]; via the lung, any of the doses) was “did not cause a drop in MAP”.
